Test results reported in US5773014A, “Compositions and methods for inhibiting the formation of unwanted skin pigmentation” (priority 1996, dated 1998).
Converted amounts (≈) assume the structure as drawn.

Columns and labels:
[1] = solubility; format: physicochemical; details: read-out: max. solubility
[2] = test system: tyrosinase; assay: in vitro tyrosinase inhibition (dopachrome formation from L-Dopa, spectrophotometry at 475 nm); format: biochemical
From the text: Tyrosinase catalyzes the formation of L-dopaquinone, and then dopachrome (in the eumelanin pathway), from L-Dopa. […] Comparisons in the rate at which this colored substance appears in the presence of a candidate whitening material indicate the effect of the material on enzymatic activity; complete absence of dopachrome reflects total inhibition of tyrosinase.

[3] = test system: cells in a culture; details: reported for other skin whiteners; cited from earlier work
[4] = test system: human skin explants; details: 0.55% (w/v), positive control; L-Dopa 0.05M, 15 hours at 37° C.
Description: The anti-tyrosinase activity of the invention was also evaluated using an ex vivo tissue model by exposing human skin explants to the material. […] Oxidation of L-Dopa by tyrosinase produces in the melanocyte an observable black pigment, which can easily be detected by optical microscopy. Tyrosinase activity can be measured by the intensity of the observed coloration.
A positive control and a negative control were also conducted in the same experiment. […] The explants, each exposed to a different test solution, were incubated with L-Dopa (0.05M) for 15 hours at 37° C. After fixation and inclusion in paraffin, the skin slices were colored with hemalun/eosin/safran and cresyl violet, and observed by optical microscopy under white light.

SMILES	Tyrosinase Inhibition (%) ([2]; concentration 5%)	IC50 (cytotoxicity, kills more than 50% of the cells in a culture) [3]	Tyrosinase Inhibition (%) ([2]; concentration 0.1%)	Tyrosinase Inhibition (%) ([2]; concentration 1%)	other results
OC[C@H]1O[C@@H](Oc2ccc(O)cc2)[C@H](O)[C@@H](O)[C@@H]1O [Pure Arbutin, arbutin]	45%				solubility [1]: 50 mg/mL (≈ 184 mM); Tyrosinase Inhibition (%) ([2]; concentration 0.2%): 20%; Tyrosinase Inhibition (%) ([2]; concentration 0.5%): 25%; Tyrosinase Inhibition (%) ([2]; concentration 2.5%): 35%
O=C1O[C@H]([C@@H](O)CO)C(O)=C1O [Ascorbic acid, ascorbic acid]		880 µg/mL	66%		
CCCCC/C=C\C/C=C\CCCCCCCC(=O)O [linoleic acid]		2.8 µg/mL			
O=C(O)CN(CCN(CC(=O)O)CC(=O)O)CC(=O)O [EDTA, ethylenediaminetetraacetic acid]	78.9%		0%	47.3%	
Oc1ccc(O)cc1 [hydroquinone]		5.5 µg/mL			formation of melanin in explant melanocytes [4]: completely inhibited the formation of melanin; tyrosinase-inhibiting activity (in words) ([2]; tested at different concentrations (FIG. 1)): exhibits no tyrosinase-inhibiting activity
O=c1cc(CO)occ1O [kojic acid]			71%	80%	
